Laboratory results published in paper PMC6348446 (Journal of Medicinal Chemistry, 2018).
Values belong to the compound of their own block, whether it stands above or below them.

Assays:
BRD7 = biological target: T1, BRD7 (Homo sapiens, UniProt Q9NPI1); test: Western blot of BRD7 levels in HeLa cells after compound treatment; type: cell-based; settings: 1 μM compound; for BRD7 degradation: HeLa cells
T1 construct: Western blot analysis of BRD9 and BRD7 levels after treatment of HeLa cells; endogenous in cells; host or cells: HeLa
T1 sequence (Q9NPI1 1-651): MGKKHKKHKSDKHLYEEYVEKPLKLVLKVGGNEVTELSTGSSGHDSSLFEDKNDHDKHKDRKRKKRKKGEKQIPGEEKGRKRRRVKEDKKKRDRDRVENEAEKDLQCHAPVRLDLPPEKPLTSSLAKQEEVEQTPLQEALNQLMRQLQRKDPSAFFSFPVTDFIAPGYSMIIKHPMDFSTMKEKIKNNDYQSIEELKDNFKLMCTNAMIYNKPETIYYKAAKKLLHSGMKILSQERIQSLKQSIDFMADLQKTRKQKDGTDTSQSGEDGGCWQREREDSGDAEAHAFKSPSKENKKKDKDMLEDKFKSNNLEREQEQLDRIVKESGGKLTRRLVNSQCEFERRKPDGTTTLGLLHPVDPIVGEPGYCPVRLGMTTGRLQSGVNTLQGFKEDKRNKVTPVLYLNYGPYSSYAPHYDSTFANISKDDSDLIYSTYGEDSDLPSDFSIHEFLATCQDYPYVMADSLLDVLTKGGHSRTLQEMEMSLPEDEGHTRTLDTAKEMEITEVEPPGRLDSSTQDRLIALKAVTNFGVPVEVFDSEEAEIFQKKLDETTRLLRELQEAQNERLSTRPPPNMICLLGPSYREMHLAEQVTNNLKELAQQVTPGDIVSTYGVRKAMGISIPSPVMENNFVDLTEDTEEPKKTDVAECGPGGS
Method: HeLa and Hek293 cells were seeded at either 0.3 × 10^6 or 0.5 × 10^6 cells per well in 6-well plate in 2 mL of medium. At 80% confluency, cells were treated with compounds at the desired concentration, with final DMSO concentration of 0.1% v/v. Cells were incubated at 37 °C and 5% of CO2 for the desired time before harvesting. For protein extraction from adherent cells, cells were washed twice with DPBS (Gibco) and lysed with RIPA buffer (Sigma-Aldrich), supplemented with cOmplete Mini EDTA-free protease inhibitor cocktail (Roche). Insoluble material was removed by centrifugation at 14 000 rpm for 15 min at 4 °C. Supernatant was collected and protein concentration was quantified by Bradford assay (Thermo Scientific no. 23200, mean of two replicates). For RI-1 cells, (1–1.5) × 10^6 cells/mL were seeded in 6-well plate in 2 mL of medium. The day after, cells were treated with compounds at the desired concentration, with final DMSO concentration of 0.1% v/v. Before harvesting, cells were incubated at 37 °C and 5% CO2 for the desired time. Cells were washed twice with DPBS (Gibco) and lysed with RIPA buffer (Sigma-Aldrich), supplemented with cOmplete Mini EDTA-free protease inhibitor cocktail (Roche). Lysates were sonicated (10 s) and centrifuged at 14 000 rpm for 20 min at 4 °C. Supernatant was collected, and protein concentration was quantified by Bradford assay (mean of two replicates). For EOL-1 and A-204 cell line, 20 000 cells were seeded in 300 μL per well in a 24-well plate and incubated at 37 °C overnight. Compounds were added from DMSO stock solution using a digital dispenser D300 (Tecan), normalizing for added DMSO, and cells were incubated at 37 °C for 18 h. Medium was removed, and cells were washed with PBS and lysed in 80 μL of lysis buffer (1% Triton, 350 mM KCl, 10 mM Tris, pH 7,4, phosphatase-protease inhibitor cocktail (Thermo Scientific no. 1861281), 10 mM DTT, Benzonase 0.5 μL/ml (Novagen no. 70746 10KU, 25 U/μL)) for 30 min on ice before insoluble debris was pelleted by centrifugation.
Proteins were resolved by SDS–PAGE on NuPage 4–12% Bis-Tris Midi Gel (Invitrogen) and transferred to Amersham Protran 0.45 NC nitrocellulose membrane (GE Healthcare) using wet transfer. The membrane was blocked with 5% w/v milk in Tris-buffered saline (TBS) with 0.1% w/v Tween-20. The following primary antibodies at the given concentration were used: anti β-actin (Cell Signaling Technology, 4970S, 13E5) 1:2000, anti-Brd9 (Bethyl A303-781A) 1:1000, anti-Brd7 (Bethyl A302-304A) 1:1000, VHL rabbit Ab (Cell Signaling Technology, no. 68547S) 1:1000, anti-CRBN (Novus Bio, NBP 1-9-1810) 1:1000, anti-actin hFAB rhodamine antibody, Bio-Rad, no. 12004164. Following incubation with horseradish peroxidase-conjugated secondary antibody (Cell Signaling Technology) or IRDye secondary antibody (Licor), bands were developed using Amersham ECL Prime Western blotting detection kit on Amersham Hyperfilm ECL film (Amersham) or ChemiDoc imaging system (Bio-Rad). ImageJ software was used for band quantification, and the last was reported as relative amount as ratio of each protein band relative to the lane’s loading control. Then the values obtained were normalized to 0.1% DMSO vehicle control. Alternatively, protein levels were determined on a WES capillary electrophoresis instrument (Proteinsimple) using a BRD9 antibody (Bethyl A303-781A) and a GAPDH antibody (Abcam no. ab9485) for normalization. DC50 and half-lives were determined by assuming a linear model between the two data points across 50% protein level mark.

BRD9 = biological target: T2, BRD9 (Homo sapiens, UniProt Q9H8M2); test: Western blot of BRD9 levels in RI-1 cells after compound treatment; type: cell-based; settings: for BRD9 degradation: 4 h
T2 construct: Western blot analysis of BRD9 and BRD7 levels after treatment of HeLa cells; endogenous in cells; host or cells: HeLa
T2 sequence (Q9H8M2 1-597): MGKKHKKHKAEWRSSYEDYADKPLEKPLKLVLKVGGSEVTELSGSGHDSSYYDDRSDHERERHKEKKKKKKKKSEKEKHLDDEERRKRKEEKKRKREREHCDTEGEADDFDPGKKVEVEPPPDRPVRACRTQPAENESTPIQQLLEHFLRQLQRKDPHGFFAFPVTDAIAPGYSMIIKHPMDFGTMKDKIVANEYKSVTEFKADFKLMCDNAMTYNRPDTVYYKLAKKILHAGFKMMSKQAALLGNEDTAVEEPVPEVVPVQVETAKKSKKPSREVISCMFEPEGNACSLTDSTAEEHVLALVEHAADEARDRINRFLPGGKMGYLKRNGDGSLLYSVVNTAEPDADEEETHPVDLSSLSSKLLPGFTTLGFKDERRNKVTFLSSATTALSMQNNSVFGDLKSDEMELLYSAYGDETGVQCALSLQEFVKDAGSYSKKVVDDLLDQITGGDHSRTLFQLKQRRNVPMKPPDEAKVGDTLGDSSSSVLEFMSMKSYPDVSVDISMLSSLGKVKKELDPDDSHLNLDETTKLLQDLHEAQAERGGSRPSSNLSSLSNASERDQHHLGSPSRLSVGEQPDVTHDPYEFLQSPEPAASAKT

remaining activity at 1 µM (BRD7; 4 h, Table 2, % of total protein remaining relative to 0.1% DMSO vehicle, HeLa cell lysates, read-out: BRD7 4 h (%)): 97%
SMILES: COc1cc(-c2cn(C)c(=O)c3cnccc23)cc(OC)c1CN1CCN(CCOCCOCCOc2cc(-c3scnc3C)ccc2CNC(=O)[C@@H]2C[C@@H](O)CN2C(=O)[C@@H](NC(=O)C2(F)CC2)C(C)(C)C)CC1 [Compound 26, (2S,4R)-N-(2-(2-(2-(2-(4-(2,6-Dimethoxy-4-(2-methyl-1-oxo-1,2-dihydro-2,7-naphthyridin-4-yl)benzyl)piperazin-1-yl)ethoxy)ethoxy)ethoxy)-4-(4-methylthiazol-5-yl)benzyl)-1-((S)-2-(1-fluorocyclopropane-1-carboxamido)-3,3-dimethylbutanoyl)-4-hydroxypyrrolidine-2-carboxamide]

BRD7 degradation (BRD7; 4 h): at most 20%
BRD7 degradation (BRD7; 16 h): ≤ 30%
SMILES: COc1cc(-c2cn(C)c(=O)c3cnccc23)cc(OC)c1CN1CCN(CCOCCOCC(=O)N[C@H](C(=O)N2C[C@H](O)C[C@H]2C(=O)NCc2ccc(-c3scnc3C)cc2)C(C)(C)C)CC1 [Compound 5, (2S,4R)-1-((S)-2-(2-(2-(2-(4-(2,6-Dimethoxy-4-(2-methyl-1-oxo-1,2-dihydro-2,7-naphthyridin-4-yl)benzyl)piperazin-1-yl)ethoxy)ethoxy)acetamido)-3,3-dimethylbutanoyl)-4-hydroxy-N-(4-(4-methylthiazol-5-yl)benzyl)pyrrolidine-2-carboxamide]

remaining activity at 1 µM (BRD9; 2 h, Table 3, % of total protein remaining relative to 0.1% DMSO vehicle, 1 μM compound, RI-1): 100%
decrease of BRD9 level (BRD9; RI-1 cells, 100 nM, 30 min): more than 50%
BRD9 degradation (BRD9; RI-1 cells, 100 nM): more than 90%
concentration window of maximal protein degradation of BRD9 (BRD9; RI-1 cells, 2 and 8 h): 10 to 100 nM
SMILES: COc1cc(-c2cn(C)c(=O)c3cnccc23)cc(OC)c1CN1CCN(CCCCCOc2cc(-c3scnc3C)ccc2CNC(=O)[C@@H]2C[C@@H](O)CN2C(=O)[C@@H](NC(=O)C2(F)CC2)C(C)(C)C)CC1 [Compound 51, (2S,4R)-N-(2-((5-(4-(2,6-Dimethoxy-4-(2-methyl-1-oxo-1,2-dihydro-2,7-naphthyridin-4-yl)benzyl)piperazin-1-yl)pentyl)oxy)-4-(4-methylthiazol-5-yl)benzyl)-1-((S)-2-(1-fluorocyclopropane-1-carboxamido)-3,3-dimethylbutanoyl)-4-hydroxypyrrolidine-2-carboxamide]

BRD9 degradation (BRD9; RI-1 cells, 100 nM): no degradation
SMILES: COc1cc(-c2cn(C)c(=O)c3cnccc23)cc(OC)c1CN1CCN(CCCCCOc2cc(-c3scnc3C)ccc2CNC(=O)[C@@H]2C[C@H](O)CN2C(=O)[C@@H](NC(=O)C2(F)CC2)C(C)(C)C)CC1 [cisVZ185]
